Source: PubChem BioAssay AID2060607 (Molecular Pharmacology Branch, DTP, NCI, 2025)
Values joined by “and” are separate entries in the source; they are usually repeats but may differ in a detail not shown here. Equal values may be shown once.

Test system: 876862-298-R-J1-PDC complex spheroids, viability % test/control
Experiment: Anticancer human tumor 876862-298-R-J1-PDC patient-derived endometrial carcinoma cell line growth inhibition [CLK]
Settings: for viability, T/C: stronger effect = lower value
Summary of the method: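 Multi-cell-type spheroids combined patient-derived tumor cells with HUVEC endothelial cells and human mesenchymal stem cells. Paired agents were dosed in half-log steps down from about clinical Cmax, or from 10 microM where Cmax was unknown.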

[1] = curve of first compound, second compound 0.0316 µM
[2] = curve of first compound, second compound 0.1 µM
[3] = curve of first compound, second compound 0.316 µM
[4] = curve of first compound, second compound 1 µM
[5] = curve of first compound, second compound 3.16 µM
[6] = curve of first compound, second compound 10 µM
[7] = second compound 0.0316 µM, first compound 0.0316 µM
[8] = second compound 0.0316 µM, first compound 0.1 µM
[9] = second compound 0.0316 µM, first compound 0.316 µM
[10] = second compound 0.0316 µM, first compound 1 µM
[11] = second compound 0.1 µM, first compound 0.0316 µM
[12] = second compound 0.1 µM, first compound 0.1 µM
[13] = second compound 0.1 µM, first compound 0.316 µM
[14] = second compound 0.1 µM, first compound 1 µM
[15] = second compound 0.316 µM, first compound 0.0316 µM
[16] = second compound 0.316 µM, first compound 0.1 µM
[17] = second compound 0.316 µM, first compound 0.316 µM
[18] = second compound 0.316 µM, first compound 1 µM
[19] = second compound 1 µM, first compound 0.0316 µM
[20] = second compound 1 µM, first compound 0.1 µM
[21] = second compound 1 µM, first compound 0.316 µM
[22] = second compound 1 µM, first compound 1 µM
[23] = second compound 3.16 µM, first compound 0.0316 µM
[24] = second compound 3.16 µM, first compound 0.1 µM
[25] = second compound 3.16 µM, first compound 0.316 µM
[26] = second compound 3.16 µM, first compound 1 µM
[27] = second compound 10 µM, first compound 0.0316 µM
[28] = second compound 10 µM, first compound 0.1 µM
[29] = second compound 10 µM, first compound 0.316 µM
[30] = second compound 10 µM, first compound 1 µM
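Further: spheroids exposed to drugs for 7 days before readout.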
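Wherever viability, T/C is given: 100% = DMSO vehicle control wells.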

Question: How did the viability, T/C (compound 0.0316 µM) turn out when `CNC(=O)c1ccc(Nc2nc(OC3CCCC3)c3c(-c4ccc5nc(C)oc5c4)c[nH]c3n2)c(OC)c1` was run?
Answer: Its viability, T/C is 86% [middle of 12 runs].

Question: What about the viability, T/C (compound 0.1 µM) of the same molecule?
Answer: Its viability, T/C is 49.5% [middle of 12 runs].

Question: What about the viability, T/C (compound 0.316 µM) of the same molecule?
Answer: The viability, T/C was 37.8% [middle of 12 runs].

Question: And the viability, T/C (compound 1 µM)?
Answer: The viability, T/C was 28.6% [middle of 12 runs].

Question: What about the viability, T/C (compound 3.16 µM) of the same molecule?
Answer: Its viability, T/C is 24.6% [middle of 12 runs].

Question: What about the viability, T/C (compound 10 µM) of the same molecule?
Answer: Its viability, T/C is 23.1% [middle of 12 runs].

Question: And the IC50 (compound alone, run of 09/19/2023)?
Answer: The IC50 was 112 nM [middle of 11 runs].

Question: `C=CC(=O)Nc1cc(Nc2nccc(-c3cn(C)c4ccccc34)n2)c(OC)cc1N(C)CCN(C)C` was tested. Which viability, T/C (compound 0.000949 µM) did it give?
Answer: Its viability, T/C is 107% and 103%.

Question: And the viability, T/C (compound 0.003 µM)?
Answer: The viability, T/C was 98.7% and 109%.

Question: What about the viability, T/C (compound 0.00949 µM) of the same molecule?
Answer: Its viability, T/C is 100% and 103%.

Question: What about the viability, T/C (compound 0.03 µM) of the same molecule?
Answer: The viability, T/C was 96.7% and 88.7%.

Question: And the viability, T/C (compound 0.0949 µM)?
Answer: The viability, T/C was 81% and 82.2%.

Question: What about the viability, T/C (compound 0.3 µM) of the same molecule?
Answer: Its viability, T/C is 46.5% and 48.2%.

Question: And the IC50 (curve of compound)?
Answer: The IC50 was 269 nM and 290 nM.

Question: With `COc1c(OCCCN2CCOCC2)ccc2c3n(c(=NC(=O)c4cnc(N)nc4)nc12)CCN3` + CN1CCN(c2cc(C(=O)Nc3cc4cc(-c5cnn(C)c5)ccc4cn3)ccn2)CC1 as the molecule, how does the IC50 [1] read?
Answer: The IC50 was 48.3 nM.

Question: And the IC50 [2]?
Answer: Its IC50 is < 3.16 nM.

Question: And the IC50 [3]?
Answer: Its IC50 is < 3.16 nM.

Question: What about the IC50 [4] of the same molecule?
Answer: Its IC50 is < 3.16 nM.

Question: What about the IC50 [5] of the same molecule?
Answer: Its IC50 is < 3.16 nM.

Question: What about the IC50 [6] of the same molecule?
Answer: The IC50 was < 3.16 nM.

Question: And the viability, T/C (second compound 0.0316 µM, first compound 0.00316 µM)?
Answer: The viability, T/C was 90.4%.

Question: What about the viability, T/C (second compound 0.0316 µM, first compound 0.01 µM) of the same molecule?
Answer: Its viability, T/C is 74.4%.

Question: And the viability, T/C [7]?
Answer: Its viability, T/C is 65.2%.

Question: And the viability, T/C [8]?
Answer: Its viability, T/C is 26.8%.

Question: What about the viability, T/C [9] of the same molecule?
Answer: The viability, T/C was 16.7%.

Question: What about the viability, T/C [10] of the same molecule?
Answer: Its viability, T/C is 17.8%.

Question: What about the viability, T/C (second compound 0.1 µM, first compound 0.00316 µM) of the same molecule?
Answer: The viability, T/C was 47.1%.

Question: And the viability, T/C (second compound 0.1 µM, first compound 0.01 µM)?
Answer: The viability, T/C was 40%.

Question: What about the viability, T/C [11] of the same molecule?
Answer: Its viability, T/C is 28.3%.

Question: What about the viability, T/C [12] of the same molecule?
Answer: Its viability, T/C is 14.6%.

Question: What about the viability, T/C [13] of the same molecule?
Answer: Its viability, T/C is 11.1%.

Question: And the viability, T/C [14]?
Answer: The viability, T/C was 13.2%.

Question: And the viability, T/C (second compound 0.316 µM, first compound 0.00316 µM)?
Answer: The viability, T/C was 4.86%.

Question: And the viability, T/C (second compound 0.316 µM, first compound 0.01 µM)?
Answer: The viability, T/C was 2.92%.

Question: And the viability, T/C [15]?
Answer: Its viability, T/C is 3.87%.

Question: And the viability, T/C [16]?
Answer: The viability, T/C was 3.03%.

Question: What about the viability, T/C [17] of the same molecule?
Answer: The viability, T/C was 3.72%.

Question: What about the viability, T/C [18] of the same molecule?
Answer: The viability, T/C was 2.59%.

Question: What about the viability, T/C (second compound 1 µM, first compound 0.00316 µM) of the same molecule?
Answer: Its viability, T/C is 0.47%.

Question: And the viability, T/C (second compound 1 µM, first compound 0.01 µM)?
Answer: The viability, T/C was 1.56%.

Question: What about the viability, T/C [19] of the same molecule?
Answer: Its viability, T/C is 0.48%.

Question: And the viability, T/C [20]?
Answer: The viability, T/C was 0.16%.

Question: What about the viability, T/C [21] of the same molecule?
Answer: The viability, T/C was 1.64%.

Question: What about the viability, T/C [22] of the same molecule?
Answer: Its viability, T/C is 1.15%.

Question: What about the viability, T/C (second compound 3.16 µM, first compound 0.00316 µM) of the same molecule?
Answer: Its viability, T/C is 1.02%.

Question: And the viability, T/C (second compound 3.16 µM, first compound 0.01 µM)?
Answer: Its viability, T/C is 1.06%.

Question: What about the viability, T/C [23] of the same molecule?
Answer: Its viability, T/C is 1.3%.

Question: What about the viability, T/C [24] of the same molecule?
Answer: Its viability, T/C is 1.09%.

Question: What about the viability, T/C [25] of the same molecule?
Answer: The viability, T/C was 1.55%.

Question: And the viability, T/C [26]?
Answer: Its viability, T/C is 0.99%.

Question: And the viability, T/C (second compound 10 µM, first compound 0.00316 µM)?
Answer: The viability, T/C was 0.74%.

Question: What about the viability, T/C (second compound 10 µM, first compound 0.01 µM) of the same molecule?
Answer: The viability, T/C was 1.11%.

Question: And the viability, T/C [27]?
Answer: The viability, T/C was 0.45%.

Question: What about the viability, T/C [28] of the same molecule?
Answer: Its viability, T/C is 1.75%.

Question: What about the viability, T/C [29] of the same molecule?
Answer: The viability, T/C was 2.12%.

Question: What about the viability, T/C [30] of the same molecule?
Answer: The viability, T/C was 1.84%.

Question: What does the source list for `CC(Nc1ccc2c(c1)OCCn1cc(N3C(=O)OCC3C(F)F)nc1-2)C(N)=O` (stereo not drawn) + CNC(=O)c1ccc(Nc2nc(OC3CCCC3)c3c(-c4ccc5nc(C)oc5c4)c[nH]c3n2)c(OC)c1?
Answer: IC50 [1]: 316 nM; IC50 [2]: < 31.6 nM; IC50 [3]: < 31.6 nM; IC50 [4]: < 31.6 nM; IC50 [5]: < 31.6 nM; IC50 [6]: < 31.6 nM; viability, T/C [7]: 56%; viability, T/C [8]: 61.4%; viability, T/C [9]: 46.6%; viability, T/C [10]: 41%; viability, T/C (second compound 0.0316 µM, first compound 3.16 µM): 31.8%; viability, T/C (second compound 0.0316 µM, first compound 10 µM): 20.8%; viability, T/C [11]: 40.6%; viability, T/C [12]: 38.3%; viability, T/C [13]: 32.5%; viability, T/C [14]: 27%; viability, T/C (second compound 0.1 µM, first compound 3.16 µM): 20.9%; viability, T/C (second compound 0.1 µM, first compound 10 µM): 16%; viability, T/C [15]: 41%; viability, T/C [16]: 33.2%; viability, T/C [17]: 29.7%; viability, T/C [18]: 23.1%; viability, T/C (second compound 0.316 µM, first compound 3.16 µM): 20%; viability, T/C (second compound 0.316 µM, first compound 10 µM): 17.4%; viability, T/C [19]: 31.6%; viability, T/C [20]: 25.4%; viability, T/C [21]: 22.1%; viability, T/C [22]: 20%; viability, T/C (second compound 1 µM, first compound 3.16 µM): 17.1%; viability, T/C (second compound 1 µM, first compound 10 µM): 14%; viability, T/C [23]: 20.1%; viability, T/C [24]: 16.7%; viability, T/C [25]: 15.1%; viability, T/C [26]: 14.8%; viability, T/C (second compound 3.16 µM, first compound 3.16 µM): 14%; viability, T/C (second compound 3.16 µM, first compound 10 µM): 10.2%; viability, T/C [27]: 16.7%; viability, T/C [28]: 14.8%; viability, T/C [29]: 12.6%; viability, T/C [30]: 13%; viability, T/C (second compound 10 µM, first compound 3.16 µM): 12%; viability, T/C (second compound 10 µM, first compound 10 µM): 9.25%
